Data taken from ChEMBL document CHEMBL5380842, “Discovery of a Potent and Selective CCR8 Small Molecular Antagonist IPG7236 for the Treatment of Cancer” (J Med Chem, 2023).
Converted amounts (≈) assume the structure as drawn.

Key:
[1] = AUClast in Cynomolgous monkey at 1 mg/kg, iv; format: ADME, organism-based, Macaca fascicularis; set-up: dose 1 mg/kg, route iv; details: cynomolgus monkey, in vivo
[2] = Volume of distribution at steady state in Sprague-Dawley rat at 1 mg/kg, iv; format: ADME, organism-based; details: in vivo, read-out: Vdss
[3] = AUClast in ICR mouse at 50 mg/kg, po; format: ADME, organism-based; set-up: dose 50 mg/kg, route po; details: in vivo
[4] = tested on: MDA-MB-231; assay: Antitumor activity against human MDA-MB-231 cells xenografted in humanized NCG mouse assessed as tumor growth inhibition at 50 mg/kg, IG bid measured after 22 days relative to control; format: functional; details: MDA-MB-231, po, 528 h, time 22 day, read-out: TGI
[5] = Volume of distribution at steady state in Beagle dog at 3 mg/kg, iv; format: ADME, organism-based, Canis lupus familiaris; details: in vivo, read-out: Vdss
[6] = Apparent permeability of compound across basal to apical side in human Caco2 cells at 10 uM incubated for 120 mins by LC-MS/MS analysis; details: Caco-2
[7] = AUClast in Beagle dog at 10 mg/kg, po; format: ADME, organism-based, Canis lupus familiaris; set-up: dose 10 mg/kg, route po; details: in vivo
[8] = Volume of distribution at steady state in ICR mouse at 1 mg/kg, iv; format: ADME, organism-based; details: in vivo, read-out: Vdss
[9] = Stability in mouse hepatocytes assessed as half life; format: ADME, cell-based, Hepatocyte
[10] = target: Cytochrome P450 2D6 (Homo sapiens, UniProt P10635); assay: Inhibition of CYP2D6 (unknown origin); format: ADME
Sequence of Cytochrome P450 2D6 (P10635 whole entry): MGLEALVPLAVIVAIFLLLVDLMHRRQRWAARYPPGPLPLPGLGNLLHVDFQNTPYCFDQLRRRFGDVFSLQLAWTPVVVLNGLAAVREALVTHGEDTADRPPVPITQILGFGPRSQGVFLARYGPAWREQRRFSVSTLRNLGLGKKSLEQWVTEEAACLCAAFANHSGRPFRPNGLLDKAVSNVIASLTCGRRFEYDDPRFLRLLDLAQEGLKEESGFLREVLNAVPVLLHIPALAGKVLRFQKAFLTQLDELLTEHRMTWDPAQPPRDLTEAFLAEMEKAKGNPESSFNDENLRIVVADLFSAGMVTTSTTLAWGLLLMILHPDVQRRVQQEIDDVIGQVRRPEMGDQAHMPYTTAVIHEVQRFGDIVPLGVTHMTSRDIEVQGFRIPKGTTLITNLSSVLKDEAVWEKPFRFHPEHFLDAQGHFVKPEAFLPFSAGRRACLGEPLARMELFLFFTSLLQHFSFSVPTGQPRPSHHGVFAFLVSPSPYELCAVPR

[11] = AUClast in Beagle dog at 3 mg/kg, iv; format: ADME, organism-based, Canis lupus familiaris; set-up: dose 3 mg/kg, route iv; details: in vivo
[12] = target: Voltage-gated inwardly rectifying potassium channel KCNH2 (Homo sapiens, UniProt Q12809); assay: Inhibition of hERG; format: toxicity
Sequence of Voltage-gated inwardly rectifying potassium channel KCNH2 (Q12809 whole entry): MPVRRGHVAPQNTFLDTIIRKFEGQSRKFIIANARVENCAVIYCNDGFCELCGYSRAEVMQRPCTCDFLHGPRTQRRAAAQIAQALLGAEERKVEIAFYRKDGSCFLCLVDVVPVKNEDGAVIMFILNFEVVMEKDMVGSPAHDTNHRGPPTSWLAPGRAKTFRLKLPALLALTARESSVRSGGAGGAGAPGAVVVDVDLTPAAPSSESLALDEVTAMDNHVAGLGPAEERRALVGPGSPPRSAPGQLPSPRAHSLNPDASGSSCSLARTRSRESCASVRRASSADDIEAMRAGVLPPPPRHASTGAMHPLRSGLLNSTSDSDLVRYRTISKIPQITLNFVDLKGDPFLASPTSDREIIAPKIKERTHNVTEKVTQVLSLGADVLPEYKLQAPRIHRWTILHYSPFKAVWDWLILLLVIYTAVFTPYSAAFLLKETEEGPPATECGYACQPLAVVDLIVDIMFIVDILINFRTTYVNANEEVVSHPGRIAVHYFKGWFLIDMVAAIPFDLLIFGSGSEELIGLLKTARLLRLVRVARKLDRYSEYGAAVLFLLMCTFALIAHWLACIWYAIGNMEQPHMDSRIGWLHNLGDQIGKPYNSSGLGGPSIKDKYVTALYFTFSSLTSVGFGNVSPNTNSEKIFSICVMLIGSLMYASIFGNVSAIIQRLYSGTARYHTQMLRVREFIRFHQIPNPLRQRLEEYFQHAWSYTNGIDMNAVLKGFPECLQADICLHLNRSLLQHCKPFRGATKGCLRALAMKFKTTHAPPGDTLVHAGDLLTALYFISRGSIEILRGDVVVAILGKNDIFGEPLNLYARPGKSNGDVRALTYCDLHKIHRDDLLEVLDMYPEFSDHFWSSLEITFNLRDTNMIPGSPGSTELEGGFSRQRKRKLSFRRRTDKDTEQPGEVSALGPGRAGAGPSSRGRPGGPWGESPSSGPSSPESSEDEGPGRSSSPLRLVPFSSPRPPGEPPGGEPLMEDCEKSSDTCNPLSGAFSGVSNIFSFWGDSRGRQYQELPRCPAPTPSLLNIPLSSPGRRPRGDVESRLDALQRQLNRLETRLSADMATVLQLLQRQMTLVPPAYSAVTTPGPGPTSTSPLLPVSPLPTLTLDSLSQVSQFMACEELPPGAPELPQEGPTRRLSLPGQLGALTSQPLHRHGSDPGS

[13] = tested on: MDA-MB-231; assay: Antitumor activity against human MDA-MB-231 cells xenografted in humanized NCG mouse assessed as […] in tumor-infiltrating CD8+ T cells administered intragastrically twice everyday; format: functional, cell-based; details: dose 2-50 mg/kg, route ig
[14] = Tmax in Sprague-Dawley rat at 50 mg/kg, po; format: ADME, organism-based; details: in vivo
[15] = Stability in human hepatocytes assessed as half life; format: ADME, cell-based, Hepatocyte
[16] = Cytotoxicity against human primary hepatocytes; format: toxicity, cell-based, Hepatocyte
[17] = Solubility of compound in PBS at pH 7.4 incubated for 2 hrs by LC-MS/MS analysis; format: physicochemical
[18] = Clearance in Sprague-Dawley rat at 1 mg/kg, iv; format: ADME, organism-based; details: in vivo
[19] = tested on: MDA-MB-231; assay: Antitumor activity against human MDA-MB-231 cells xenografted in humanized NCG mouse assessed as tumor growth inhibition at 10 mg/kg, IG bid measured after 22 days relative to control; format: functional; details: MDA-MB-231, po, 528 h, time 22 day, read-out: TGI
[20] = Oral bioavailability in Sprague-Dawley rat at 50 mg/kg; format: ADME, organism-based; details: in vivo
[21] = target: T1, Cytochrome P450 1A2 (Homo sapiens, UniProt P05177); assay: Inhibition of CYP1A2 (unknown origin); format: ADME
T1 sequence (P05177 whole entry): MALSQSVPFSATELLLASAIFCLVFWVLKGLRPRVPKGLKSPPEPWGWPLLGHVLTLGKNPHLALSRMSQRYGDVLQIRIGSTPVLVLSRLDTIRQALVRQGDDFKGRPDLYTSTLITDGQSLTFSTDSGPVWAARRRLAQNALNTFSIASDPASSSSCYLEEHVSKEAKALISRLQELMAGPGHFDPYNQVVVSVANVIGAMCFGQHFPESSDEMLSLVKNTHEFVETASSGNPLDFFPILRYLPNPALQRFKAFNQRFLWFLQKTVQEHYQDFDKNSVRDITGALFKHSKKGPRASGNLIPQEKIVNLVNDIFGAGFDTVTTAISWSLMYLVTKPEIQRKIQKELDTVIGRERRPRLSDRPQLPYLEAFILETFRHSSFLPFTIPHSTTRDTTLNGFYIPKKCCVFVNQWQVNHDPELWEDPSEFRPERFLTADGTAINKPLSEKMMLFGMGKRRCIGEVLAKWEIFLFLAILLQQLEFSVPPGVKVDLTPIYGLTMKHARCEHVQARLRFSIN

[22] = Unbound fraction in mouse plasma; format: ADME, cell-free
[23] = AUClast in Sprague-Dawley rat at 1 mg/kg, iv; format: ADME, organism-based; set-up: dose 1 mg/kg, route iv; details: in vivo
[24] = Clearance in Cynomolgous monkey at 1 mg/kg, iv; format: ADME, organism-based, Macaca fascicularis; details: cynomolgus monkey, in vivo
[25] = Tmax in Beagle dog at 10 mg/kg, po; format: ADME, organism-based, Canis lupus familiaris; details: in vivo
[26] = target: Cytochrome P450 3A4 (Homo sapiens, UniProt P08684); assay: Inhibition of CYP3A4-T (unknown origin); format: ADME
Sequence of Cytochrome P450 3A4 (P08684 whole entry): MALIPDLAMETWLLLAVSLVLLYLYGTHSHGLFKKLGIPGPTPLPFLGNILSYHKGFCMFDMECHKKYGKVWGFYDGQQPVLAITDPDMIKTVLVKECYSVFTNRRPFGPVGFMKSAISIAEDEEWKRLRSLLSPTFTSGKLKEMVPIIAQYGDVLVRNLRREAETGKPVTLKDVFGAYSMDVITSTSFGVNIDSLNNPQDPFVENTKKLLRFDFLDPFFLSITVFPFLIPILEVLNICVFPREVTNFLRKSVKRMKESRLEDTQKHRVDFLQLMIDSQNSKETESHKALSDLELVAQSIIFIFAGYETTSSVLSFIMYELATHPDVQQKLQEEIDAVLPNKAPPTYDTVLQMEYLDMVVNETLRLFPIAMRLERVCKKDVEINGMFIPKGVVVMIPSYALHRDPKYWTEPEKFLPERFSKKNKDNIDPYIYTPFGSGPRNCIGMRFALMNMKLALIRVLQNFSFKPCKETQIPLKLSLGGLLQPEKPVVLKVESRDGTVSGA

[27] = Stability in rat liver microsomes assessed as half life; format: ADME, Microsome
[28] = Apparent permeability of compound across apical to basal side in human Caco2 cells at 10 uM incubated for 120 mins by LC-MS/MS analysis; details: Caco-2
[29] = Toxicity in humanized NCG mouse xenografted with human MDA-MB-231 cells administered intragastrically twice everyday; details: in vivo, po
[30] = tested on: MDA-MB-231; assay: Synergistic antitumor activity against human MDA-MB-231 cells xenografted in humanized NCG mouse assessed as tumor growth inhibition at 10 mg/kg, po bid in presence of PD-1 antibody relative to control; format: functional; details: read-out: TGI
[31] = AUClast in Cynomolgous monkey at 50 mg/kg, po; format: ADME, organism-based, Macaca fascicularis; set-up: dose 50 mg/kg, route po; details: cynomolgus monkey, in vivo
[32] = Clearance in ICR mouse at 1 mg/kg, iv; format: ADME, organism-based; details: in vivo
[33] = Clearance in Beagle dog at 3 mg/kg, iv; format: ADME, organism-based, Canis lupus familiaris; details: in vivo
[34] = Tmax in ICR mouse at 50 mg/kg, po; format: ADME, organism-based; details: in vivo
[35] = tested on: MDA-MB-231; assay: Antitumor activity against human MDA-MB-231 cells xenografted in humanized NCG mouse assessed as tumor growth inhibition at 10 mg/kg, po bid relative to control; format: functional; details: read-out: TGI
[36] = Oral bioavailability in Beagle dog at 10 mg/kg; format: ADME, organism-based, Canis lupus familiaris; details: in vivo
[37] = Volume of distribution at steady state in Cynomolgous monkey at 1 mg/kg, iv; format: ADME, organism-based, Macaca fascicularis; details: cynomolgus monkey, in vivo, read-out: Vdss
[38] = target: Cytochrome P450 2C19 (Homo sapiens, UniProt P33261); assay: Inhibition of CYP2C19 (unknown origin); format: ADME
Sequence of Cytochrome P450 2C19 (P33261 whole entry): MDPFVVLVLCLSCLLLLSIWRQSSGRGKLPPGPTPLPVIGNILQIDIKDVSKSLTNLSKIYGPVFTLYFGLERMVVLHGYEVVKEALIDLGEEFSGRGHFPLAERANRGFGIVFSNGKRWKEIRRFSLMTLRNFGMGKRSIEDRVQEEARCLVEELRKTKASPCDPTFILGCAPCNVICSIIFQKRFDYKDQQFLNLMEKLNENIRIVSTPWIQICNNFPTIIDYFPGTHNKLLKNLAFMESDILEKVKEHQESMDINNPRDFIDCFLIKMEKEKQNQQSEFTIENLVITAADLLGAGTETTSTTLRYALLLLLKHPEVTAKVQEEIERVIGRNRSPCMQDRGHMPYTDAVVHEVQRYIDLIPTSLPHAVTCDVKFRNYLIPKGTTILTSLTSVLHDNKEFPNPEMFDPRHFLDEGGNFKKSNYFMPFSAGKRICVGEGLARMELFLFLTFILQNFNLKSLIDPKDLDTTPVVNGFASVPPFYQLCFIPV

[39] = AUClast in ICR mouse at 1 mg/kg, iv; format: ADME, organism-based; set-up: dose 1 mg/kg, route iv; details: in vivo
[40] = target: T2, Cytochrome P450 2B6 (Homo sapiens, UniProt P20813); assay: Inhibition of CYP2B6 (unknown origin); format: ADME
T2 sequence (P20813 whole entry): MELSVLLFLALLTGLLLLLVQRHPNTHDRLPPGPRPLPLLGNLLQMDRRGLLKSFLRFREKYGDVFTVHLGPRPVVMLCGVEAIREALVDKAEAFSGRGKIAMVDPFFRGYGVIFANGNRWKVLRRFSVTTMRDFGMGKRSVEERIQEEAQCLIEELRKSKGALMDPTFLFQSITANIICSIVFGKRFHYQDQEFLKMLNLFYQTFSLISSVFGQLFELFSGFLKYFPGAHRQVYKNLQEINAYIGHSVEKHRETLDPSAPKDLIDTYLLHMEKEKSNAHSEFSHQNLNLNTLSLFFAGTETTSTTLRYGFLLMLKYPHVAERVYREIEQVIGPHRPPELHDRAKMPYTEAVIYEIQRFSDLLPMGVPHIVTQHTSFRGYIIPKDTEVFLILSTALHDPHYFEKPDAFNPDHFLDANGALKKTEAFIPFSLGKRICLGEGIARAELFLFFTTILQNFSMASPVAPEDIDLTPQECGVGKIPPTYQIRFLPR

Compound `Cc1cc(S(=O)(=O)N[C@H](C)C2CCN(C)CC2)ccc1NC(=O)c1ccccc1C` has an AUC(0-t) [1] of 538 ng·h/mL, a Vd [2] of 4.4 L/kg and an AUC(0-t) [3] of 22100 ng·h/mL. The inhibition in vivo at 50 mg/kg [4] was 55.6%, the Vd [5] was 2.2 L/kg and the Papp B→A at 2 h, 10 µM [6] was 17.2 ×10⁻⁶ cm/s. It also gave an AUC(0-t) [7] of 6480 ng·h/mL, a Vd [8] of 2.2 L/kg and a half-life [9] of 43.5 h. The IC50 [10] was greater than 10 µM, the AUC(0-t) [11] was 3550 ng·h/mL and the IC50 [12] was greater than 30 µM. For the same compound, the Activity [13] was “Dose-Dependent Effect”, the Tmax [14] was 3.3 h and the half-life [15] was 8.7 h. It also gave an IC50 [16] greater than 150 µM, a solubility at 2 h [17] of 254 µM (≈ 109 µg/mL) and a clearance [18] of 40.9 mL/min/kg. The inhibition in vivo at 10 mg/kg [19] was 28.3%, the bioavailability [20] was 66% and the IC50 [21] was greater than 10 µM. The fraction unbound [22] was 0.449, the AUC(0-t) [23] was 395 ng·h/mL and the clearance [24] was 31.1 mL/min/kg. It also gave a Tmax [25] of 0.5 h, an IC50 [26] greater than 10 µM and a half-life [27] of 2.5 h. It also gave a Papp A→B at 2 h, 10 µM [28] of 3.7 ×10⁻⁶ cm/s, an MED [29] of 10 mg/kg and an inhibition in vivo at 10 mg/kg [30] of 73.8%. The AUC(0-t) [31] was 28900 ng·h/mL, the clearance [32] was 24.5 mL/min/kg and the clearance [33] was 14.2 mL/min/kg. It also gave a Tmax [34] of 0.5 h, an inhibition in vivo at 10 mg/kg [35] of 47.2% and a bioavailability [36] of 55%. It also gave a Vd [37] of 2.8 L/kg, an IC50 [38] greater than 10 µM and an AUC(0-t) [39] of 666 ng·h/mL. For the same compound, the IC50 [40] was greater than 10 µM.
